Measurements from patent US20160113932A1, “TREATMENT OF CANCERS USING PI3 KINASE ISOFORM MODULATORS” (INFINITY PHARMACEUTICALS, INC., priority 2013, published 2016).
Values after ≈ are worked out from the molar mass of the structure shown. Values joined by “and” are separate entries in the source; they are usually repeats but may differ in a detail not shown here. Equal entries are not always repeated.

Columns and labels:
[1] = system: PI3K-δ specific basophil activation; test: Anti-fCER1 BAT: PI3K-δ specific basophil activation in human whole blood; format: cell-based; settings: read-out: Anti-fCER1 BAT (delta) EC50
[2] = Absolute bioavailability / pharmacokinetics in Beagle dogs; format: in vivo; settings: Dog, PO, 5 mg/kg
[3] = Absolute bioavailability / pharmacokinetics in cynomolgus monkeys; format: in vivo; settings: Monkey, PO, 5 mg/kg, suspension
[4] = Tissue distribution of radiolabelled Compound 292 in rat; format: in vivo
human P-glycoprotein = molecular target: T1, human P-glycoprotein (Homo sapiens, UniProt P08183); test: Interaction with human P-glycoprotein in Caco-2 cell monolayers; format: in vitro ADME
T1 construct: assessed in vitro using Caco-2 cell monolayers; endogenous in cells; host or cells: Caco-2 cell monolayers

[5] = In vivo rat micronucleus assay
[6] = Clinical pharmacokinetics after 25 mg or 75 mg BID administration; format: in vivo, human
[7] = system: CD63 expression on the surface of basophils; test: Basophil activation assay in whole blood of oncology patients (PI3K inhibition); format: in vivo, human; settings: from PK/PD in patients
Procedure: PK and PD markers were evaluated after the first dose (e.g., 8 mg BID) and at steady state. PD activity (PI3K inhibition) in whole blood was evaluated using a basophil activation assay which measured reduction in CD63 expression on the surface of basophils following ex vivo stimulation.

[8] = system: serum cytokines/chemokines and matrix metalloproteinases; test: Serum cytokines/chemokines in patients, Milliplex 96-well immuno-assay; format: in vivo, human; settings: CLL patients pooled, 8-75 mg BID, C1D8 and/or C2D1
Procedure: Serum concentrations of a panel of human cytokines/chemokines were determined by Milliplex 96-well immuno-assay as described below.
the blood was allowed to clot for at least 30 minutes before centrifugation for 10 minutes at 1000×g. Serum was removed and either assayed immediately or aliquoted and stored at ≦−20° C. When using frozen samples, it is recommended to thaw the samples completely, mix well by vortexing and centrifuge prior to use in the assay to remove particulates.
1.0 mL deionized water was added to the bottle containing lyophilized Serum Matrix (catalog number MX HSM from MILLIPLEX® Map), and was allowed to be mixed will for at least 10 minutes for complete reconstitution.
200 μL of wash buffer was added into each well of the plate. The plate was sealed and mixed on a plate shaker for 10 minutes at room temperature (20-25° C.). The wash buffer was decanted and the residual amount was removed from all wells by inverting the plate and tapping it smartly onto absorbent towels several times. 25 μL of each standard or control was added into the appropriate wells. […]
The plate was run on Luminex 200™, HTS, FLEXMAP 3D™ or MAGPIX® with xPONENT software. The Median Fluorescent Intensity (MFI) data was saved and analyzed using a 5-parameter logistic or spline curve-fitting method for calculating cytokine/chemokines concentrations in samples. […]

Toledo = test: DLBCL cellular growth inhibition assay; format: cell-based; settings: Homo sapiens
[9] = system: pAKT and Ki-67 expression in primary CLL cells; test: CLL cell proliferation with CD40L/IL-2/IL-10, four color FACS; format: cell-based; settings: Homo sapiens, primary CLL cells stimulated with CD40L/IL-2/IL-10, n=2, read-out: EC50, inhibition of pAKT and Ki-67 expression
Procedure: Generally, CLL cells were seeded and incubated with proliferation cocktail (containing sCD40L, rH-IL 10 and rH-IL 2) in media. Then, four color FACS analysis was performed using antibodies to pAKT, Ki-67, CD19 and CD5.

migration of CLL cells = test: Chemotaxis assay of CLL cells; format: cell-based, human; settings: range 2-42%; n=8
Text: (FIGS. 35 and 36). […] In addition, this direct inhibitory effect on CLL cells in the lymph nodes could lead to rapid and prolonged responses in cancer patients.

PI3K δ = PI3K δ (Homo sapiens, UniProt O00329); test: Plasma concentration for suppression of PI3K-δ (PK/PD); design: endogenous in cells; host or cells: RAJI (human Burkitt lymphoma)
PI3K δ, sequence (O00329 whole entry): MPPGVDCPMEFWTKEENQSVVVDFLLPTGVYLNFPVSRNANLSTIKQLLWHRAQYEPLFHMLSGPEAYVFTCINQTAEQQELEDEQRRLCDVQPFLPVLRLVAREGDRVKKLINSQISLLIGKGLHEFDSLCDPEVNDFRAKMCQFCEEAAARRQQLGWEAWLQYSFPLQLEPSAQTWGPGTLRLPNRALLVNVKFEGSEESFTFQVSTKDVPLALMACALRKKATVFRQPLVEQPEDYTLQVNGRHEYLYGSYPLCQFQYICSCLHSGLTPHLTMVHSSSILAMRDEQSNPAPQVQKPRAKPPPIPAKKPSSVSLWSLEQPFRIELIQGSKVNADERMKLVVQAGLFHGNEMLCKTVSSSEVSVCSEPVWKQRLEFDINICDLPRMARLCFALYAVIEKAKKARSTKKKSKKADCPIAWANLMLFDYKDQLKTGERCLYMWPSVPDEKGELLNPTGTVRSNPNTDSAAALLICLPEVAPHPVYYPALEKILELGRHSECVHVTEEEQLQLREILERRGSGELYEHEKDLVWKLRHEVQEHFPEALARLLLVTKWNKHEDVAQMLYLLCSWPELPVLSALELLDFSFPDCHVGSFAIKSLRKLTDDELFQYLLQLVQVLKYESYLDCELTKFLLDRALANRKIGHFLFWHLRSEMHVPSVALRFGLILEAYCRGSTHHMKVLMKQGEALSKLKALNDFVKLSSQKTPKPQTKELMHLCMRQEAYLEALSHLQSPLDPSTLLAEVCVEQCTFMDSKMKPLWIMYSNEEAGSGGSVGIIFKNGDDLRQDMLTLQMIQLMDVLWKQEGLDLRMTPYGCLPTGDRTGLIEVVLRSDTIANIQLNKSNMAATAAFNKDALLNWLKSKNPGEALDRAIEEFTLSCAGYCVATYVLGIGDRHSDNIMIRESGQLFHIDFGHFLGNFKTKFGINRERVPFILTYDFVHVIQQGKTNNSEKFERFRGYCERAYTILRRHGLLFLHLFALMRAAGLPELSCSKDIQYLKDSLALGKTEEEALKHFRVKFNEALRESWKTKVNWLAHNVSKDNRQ
PI3K δ, sequence (P27986 whole entry partner): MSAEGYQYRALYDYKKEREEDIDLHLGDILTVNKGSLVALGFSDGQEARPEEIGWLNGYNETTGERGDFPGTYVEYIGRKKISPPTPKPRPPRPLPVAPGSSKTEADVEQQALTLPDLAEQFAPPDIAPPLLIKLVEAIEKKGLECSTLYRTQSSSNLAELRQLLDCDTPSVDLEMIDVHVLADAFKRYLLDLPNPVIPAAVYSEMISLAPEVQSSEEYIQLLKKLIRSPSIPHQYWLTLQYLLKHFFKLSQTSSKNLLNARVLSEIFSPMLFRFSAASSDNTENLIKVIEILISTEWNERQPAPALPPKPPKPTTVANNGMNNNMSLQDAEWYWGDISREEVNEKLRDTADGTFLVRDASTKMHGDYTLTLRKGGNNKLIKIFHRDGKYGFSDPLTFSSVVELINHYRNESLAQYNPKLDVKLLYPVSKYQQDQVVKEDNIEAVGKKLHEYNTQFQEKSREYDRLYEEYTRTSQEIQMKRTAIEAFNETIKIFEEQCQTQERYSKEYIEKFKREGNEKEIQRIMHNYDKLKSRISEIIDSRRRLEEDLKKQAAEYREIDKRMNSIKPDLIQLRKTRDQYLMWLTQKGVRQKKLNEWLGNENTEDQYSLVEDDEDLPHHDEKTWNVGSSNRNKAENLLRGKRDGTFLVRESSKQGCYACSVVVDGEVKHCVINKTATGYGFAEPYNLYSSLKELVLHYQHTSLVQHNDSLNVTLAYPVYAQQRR

T1 sequence (P08183 whole entry): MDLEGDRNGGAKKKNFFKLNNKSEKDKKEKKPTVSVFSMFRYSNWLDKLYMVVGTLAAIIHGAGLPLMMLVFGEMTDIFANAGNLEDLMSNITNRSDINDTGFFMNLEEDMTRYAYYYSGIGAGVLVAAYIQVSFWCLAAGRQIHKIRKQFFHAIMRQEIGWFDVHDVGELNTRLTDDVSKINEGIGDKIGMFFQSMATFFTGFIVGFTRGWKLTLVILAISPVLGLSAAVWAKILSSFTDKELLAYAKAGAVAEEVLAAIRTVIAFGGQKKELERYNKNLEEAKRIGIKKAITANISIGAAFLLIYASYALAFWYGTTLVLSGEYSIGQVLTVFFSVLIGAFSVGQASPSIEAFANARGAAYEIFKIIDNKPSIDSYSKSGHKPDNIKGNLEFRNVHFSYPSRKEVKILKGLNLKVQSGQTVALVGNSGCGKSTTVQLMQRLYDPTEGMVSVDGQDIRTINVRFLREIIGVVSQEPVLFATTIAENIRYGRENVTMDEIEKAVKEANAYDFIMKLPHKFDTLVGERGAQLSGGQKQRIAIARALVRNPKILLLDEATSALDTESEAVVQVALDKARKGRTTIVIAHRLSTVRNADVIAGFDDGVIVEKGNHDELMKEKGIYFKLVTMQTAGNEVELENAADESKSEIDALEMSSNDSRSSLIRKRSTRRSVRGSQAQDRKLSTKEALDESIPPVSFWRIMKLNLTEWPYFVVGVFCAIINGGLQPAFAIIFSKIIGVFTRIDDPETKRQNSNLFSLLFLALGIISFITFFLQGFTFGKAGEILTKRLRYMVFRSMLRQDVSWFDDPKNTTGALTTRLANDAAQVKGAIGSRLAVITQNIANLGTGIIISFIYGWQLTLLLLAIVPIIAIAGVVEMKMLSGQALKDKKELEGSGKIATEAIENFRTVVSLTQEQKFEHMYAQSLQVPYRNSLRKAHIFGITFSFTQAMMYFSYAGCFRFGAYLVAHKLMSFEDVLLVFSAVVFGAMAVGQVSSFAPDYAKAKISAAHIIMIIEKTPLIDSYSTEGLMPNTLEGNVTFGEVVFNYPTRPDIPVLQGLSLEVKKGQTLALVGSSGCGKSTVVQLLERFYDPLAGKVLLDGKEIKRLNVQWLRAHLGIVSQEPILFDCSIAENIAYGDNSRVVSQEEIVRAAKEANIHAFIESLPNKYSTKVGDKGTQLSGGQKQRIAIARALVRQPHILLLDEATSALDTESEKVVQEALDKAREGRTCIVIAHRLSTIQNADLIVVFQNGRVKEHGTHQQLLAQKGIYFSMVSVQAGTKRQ

For C[C@H](Nc1ncnc2[nH]cnc12)c1cc2cccc(Cl)c2c(=O)n1-c1ccccc1 [Compound 292], the EC50 [1] was 0.01 to 0.1 µM, the Foral ([2]; calculated using 0.5 mg/kg IV dose as reference and AUC0-last) was 97g'i % and the Foral ([2]; calculated using 1 mg/kg IV dose as reference and AUC0-last) was 40% and 40h'i %. For the same compound, the Foral [3] was 40%, the “distribution into rat tissues” value [4] was “rapid and extensive” and the “elimination of radiolabelled Compound 292 from tissues” value ([4]; majority of tissues without quantifiable radioactivity at 24 hr) was “rapid”. The P-gp substrate status (human P-glycoprotein) was “is a P-gp substrate”, the “inhibition of active transport of other P-gp substrates” value (human P-glycoprotein) was “has the potential to inhibit” and the “adverse effect in micronucleus assay” value [5] was “no direct adverse effect”. For the same compound, the “mean predose steady state plasma concentration” value ([6]; 25 mg BID) was “about 390 ng/ml”, the “time of maximal plasma concentrations following dosing” value ([6]; 25 mg or 75 mg BID) was “around 1 hour” and the AUC versus dose ([6]; doses through 75 mg BID) was “increases proportionally with doses”. The half-life ([6]; human, plasma, oral, both 25 mg and 75 mg BID, read-out: elimination half-life) was 4 to 5 h, the “dose achieving complete inhibition of PI3K-δ” value [7] was no less than 15 mg BID and the “doses that increasingly suppress PI3K-γ” value [7] was no less than 25 mg BID. The “analytes decreased after treatment compared to baseline” value [8] was 10 of 72 analytes, the IC50 (Toledo) was greater than 50 µM and the EC50 [9] was less than 0.01 µM. The “reduction in migration of CLL cells, % control reduction, median” value (migration of CLL cells) was 23% and the IC90 (PI3K δ) was 0.361 mg/L (≈ 0.866 µM).
